{"source": "patent US20100286029A1", "about": "“USE OF A PEPTIDE AS A THERAPEUTIC AGENT” (priority 2007, published 2010)", "key": {"[1]": {"tested_on": "hepatitis B virus (HBV) ayw strain", "assay": "HBV experimental assay system, secreted HBV DNA by TaqMan PCR in HepG2-2.2.15", "assay_type": "cell-based", "conditions": "10 micrograms per ml; HepG2-2.2.15 cells, six days", "protocol": "HepG2-2.2.15 is a stable cell line containing the hepatitis B virus (HBV) ayw strain genome (ATCC Cat. No. CRL-11997). Antiviral compounds blocking any late step of viral replication such as transcription, translation, pregenome encapsidation, reverse transcription, particle assembly and release can be identified and characterized using this cell line.\nHepG2-2.2.15 cells were plated in 96-well microtiter plates. After 16-24 hours the confluent monolayer of HepG2-2.2.15 cells was washed and the medium was replaced with complete medium containing test peptides-10 micrograms per ml—in duplicate. […] Three days later the culture medium was replaced with fresh medium containing the peptides. Six days following the initial administration of the peptides, the cell culture supernatants was collected, treated with pronase and DNAse and then used in a real-time quantitative TaqMan PCR assay. The PCR-amplified HBV DNA was detected in real-time by monitoring increases in fluorescence signals that result from the exonucleolytic degradation of a quenched fluorescence probe molecule that hybridizes to the mplified HBV DNA. For each PCR amplification, a standard curve was simultaneously generated using dilutions of purified HBV DNA.\nAntiviral activity was calculated from the reduction in HBV DNA levels (% virus control). […]"}, "[2]": {"tested_on": "Human Peripheral Blood Mononuclear Cells (PBMC)", "assay": "B cell proliferation assay (SAC plus Interleukin-2, 3H-thymidine)", "assay_type": "cell-based", "conditions": "10 micrograms per ml", "protocol": "Human Peripheral Blood Mononuclear Cells (PBMC) were obtained from normal human donors. The B cell proliferation was induced by stimulation of the cells with the B cell mitogen Staphylococcus aureus Cowans I (SAC) plus Interleukin-2, either in the absence (positive proliferation control), or in the presence of test peptides—10 micrograms per ml—to examine their effects on the B cell response. 10^5/well PBMC were plated in 96-well microtiter plates and assayed in duplicate with the peptides. […] At the end of incubation time, the plates were harvested and the cells counted by liquid scintillation for the incorporation of ^3H-thymidine as a measure of B cell proliferation."}, "human macrophages": {"tested_on": "human macrophages", "assay": "TNF alpha production assay (LPS-stimulated macrophages, ELISA)", "assay_type": "cell-based", "conditions": "10 micrograms per ml, 30 min preincubation; LPS 200 ng/ml, overnight", "protocol": "Human Peripheral Blood Mononuclear Cells (PBMC) were obtained from normal human donors. The macrophages were prepared by adherence of PBMC to the plastic wells of the plates. […] Not stimulated macrophages served as negative background control. After overnight incubation, supernatants from the control and LPS-stimulated cultures were harvested and assayed for TNF alpha production employing a TNF alpha specific ELISA."}, "Human A549 cells": {"tested_on": "Human A549 cells", "assay": "Apoptosis prevention assay (C2 ceramide, Annexin-5)", "assay_type": "cell-based", "conditions": "10 micrograms per ml, 30 min pretreatment", "protocol": "Human A549 cells (carcinomic human alveolar basal epithelial cells) were utilized in the experiments employing the Annexin-5 apoptosis assay. […] A549 cells were pretreated for 30 min with test peptides—10 micrograms per ml—followed by the exposure to C2 ceramide."}, "[3]": {"tested_on": "Human Peripheral Blood Mononuclear Cells (PBMC)", "assay": "T cell proliferation assay (PHA, 3H-thymidine)", "conditions": "10 micrograms per ml, 3H-thymidine incorporation", "protocol": "Human Peripheral Blood Mononuclear Cells (PBMC) were obtained from normal human donors. The T cell proliferation was induced by stimulation of the cells with the T cell mitogen phytohemagglutinin (PHA), either in the absence (positive proliferation control), or in the presence of test peptides—10 micrograms per ml—to examine their effects on the T cell proliferating response. 10^5/well PBMC were plated in 96-well microtiter plates and assayed in duplicate with the peptides. […] At the end of incubation time, the plates were harvested and the cells counted by liquid scintillation for the incorporation of ^3H-thymidine as a measure of T cell proliferation."}, "spleen cells": {"tested_on": "spleen cells", "assay": "Th1/Th2 cytokine profiling assay (Ovalbumin-restimulated spleen cells, CBA kit)", "assay_type": "cell-based, Balb/c mice", "conditions": "10 micrograms per ml; Ovalbumin restimulation, 72 hours"}}, "note": "No end group written: not given here.", "data": [{"substance": "Tyr-Pro-Phe-Val-Glu-Pro-Ile-OH (YPFVEPI-OH) [Peptide 1]", "values": [{"measurement": "inhibition of HBV replication as compared to the virus control infection", "setting": "[1]", "result": 23.8, "unit": "%"}, {"measurement": "induction of the proliferation of specifically stimulated human B-cells", "setting": "[2]", "result": "did not induce"}, {"measurement": "induction of the LPS-induced TNF-alpha production in human macrophages", "setting": "human macrophages", "result": 18.4, "unit": "%"}, {"measurement": "prevention (reduction) of ceramide-induced apoptosis on human lung cells", "setting": "Human A549 cells", "result": 37.3, "unit": "%"}, {"measurement": "% of PHA induced Control (T cell proliferation)", "setting": "[3]", "result": 98.8, "unit": "%"}, {"measurement": "IFNγ spleen cells; TH1 response (% of control)", "setting": "spleen cells", "result": "218.6 % of control"}, {"measurement": "IL-2 spleen cells (% of control)", "setting": "spleen cells", "result": "96.9 % of control"}, {"measurement": "IL-4 spleen cells; TH2 response (% of control)", "setting": "spleen cells", "result": "142.1 % of control"}, {"measurement": "IL-5 spleen cells; TH2 response (% of control)", "setting": "spleen cells", "result": "81.6 % of control"}, {"measurement": "TNF-a spleen cells; TH1 response (% of control)", "setting": "spleen cells", "result": "143.7 % of control"}]}]}
